The values that follow come from US8501777B2, “3,5-disubstituted phenyl-piperidines as modulators of dopamine neurotransmission” (NSAB, Filial AF Neurosearch Sweden AB, Sverige, priority 2005, dated 2013).

Counter-ions that a name gives are not always drawn. Like-named read-outs stand apart in the source and are kept apart here.

Usually melting point stands for the temperature of the solid-liquid transition. In general, IC50 refers to the concentration that inhibits the measured activity by half. For orientation: ED50 means the dose at which the effect has come halfway, by size or by number of responders. The term bioavailability denotes the share of a dose that reaches the circulation, judged against a reference dose that is usually intravenous.

Series [1] has as its system MK-801 pre-treated rats. The experiment in a line: Locomotor activity in MK-801 pre-treated rats. The series is classed as in vivo, rat. The conditions noted are these: MK-801 0.7 mg/kg i.p. 90 min before test compound, recorded 30-60 min after administration. The procedure: Another animal model of antipsychotic activity is based on administration of the glutamate antagonist MK-801. Glutamate antagonists (i.e. NMDA antagonists), can induce psychoses in man (see Psychopharmacology, 4th Generation of progress Chapter 101, p. 1205 and 1207) and induce behavioural aberrations in animals. […] In this study the NMDA antagonist MK-801 (0.7 mg/kg i.p.) was used to create a hypoglutamatergic state where the rats display abnormal, hyperactive behaviour. Compounds in the present invention dose-dependently reverse the behavioural aberration induced by MK-801 (see Table 2).
Behavioural activity was measured using eight Digiscan activity monitors (RXYZM (16) TAO, Omnitech Electronics, Columbus, Ohio, USA), connected to an Omnitech Digiscan analyzer and a Apple Macintosh computer equipped with a digital interface board (NB DIO-24, National Instruments, USA). Each activity monitor consisted of a quadratic metal frame (W×L 40×40 cm) equipped with photobeam sensors. […]
Behavioural data from each activity monitor, representing the position (horizontal centre of gravity and vertical activity) of the animal at each time, were recorded at a sampling frequency of 25 Hz and collected using a custom written LABView™ application. The data from each recording session were stored and analyzed with respect to distance traveled. […]

Series [2] deals with 3,4 dihydroxyphenylacetic acid (DOPAC) in striatum. The series is described as follows: In vivo neurochemistry: DOPAC in striatum. The conditions noted are these: rat, 100 μmol/kg s.c. The text has this:
After the behavioural activity sessions, the rats were decapitated and their brains rapidly taken out and put on an ice-cold petri-dish. The limbic forebrain, the striatum, the frontal cortex and the remaining hemispheral parts of each rat were dissected and frozen. Each brain part was subsequently analyzed with respect to its content of monoamines and their metabolites.
The monoamine transmitter substances (NA (noradrenaline), DA (dopamine), 5-HT (serotonin)) as well as their amine (NM (normethanephrine), 3-MT (3-methoxytyramine)) and acid (DOPAC (3,4-dihydroxyphenylacetic acid), 5-HIAA (5-hydroxyindoleacetic acid), HVA (homovanillic acid)) metabolites are quantified in brain tissue homogenates by HPLC separations and electrochemical detection.
The analytical method is based on two chromatographic separations dedicated for amines or acids. Two chromatographic systems share a common auto injector with a 10-port valve and two sample loops for simultaneous injection on the two systems. Both systems are equipped with a reverse phase column (Luna C18(2), dp 3μ, 50*2 mm i.d., Phenomenex) and electrochemical detection is accomplished at two potentials on glassy carbon electrodes (MF-1000, Bioanalytical Systems, Inc.). Via a T-connection the column effluent is passed to the detection cell or to waste. […]

Series [3] can be described thus: Metabolic stability in rat liver microsomes. The series is classed as in vitro ADME. The conditions noted are these: 15 min incubation at 37° C., NADPH. On the procedure:
Rat liver microsomes were isolated as described by Forlin (1980) Effects of Clophen A50, 3-methylcholantrene, pregnenolone-16aq-carbonitrile and Phenobarbital on the hepatic microsomal cytochrome P-450-dependent monooxygenaser system in rainbow trout, salmo garirdneri, of different age and sex. Tox Appl Pharm. […]
1 μL of, 0.2 or 1 mM test substance diluted in water and 10 μL 20 mg/mL rat liver micro-some were mixed with 149 μL 37° C. buffer 1 and the reaction was started by addition of 40 μL 4.1 mg/mL NADPH. […] The test compound was analysed using HPLC-MS (Hewlett-Packard 1100MSD Series) with a Zorbax SB-C18 column (2.1*150 mm, 5 μm) using 0.03% formic acid and acetonitrile as mobile phase (gradient) or a Zorbax Eclipse XDB-C18 (3*75 mm, 3.5 μm) using 0.03% acetic acid and acetonitrile as mobile phase (gradient). The 15 min turnover was calculated as the fraction of test compound eliminated after 15 minutes, expressed in percent of 0 min levels, ie 100*[conc test compound at 0 min−concentration at 15 min]/conc at 0 min.
For orientation: Microsomes from liver hold many membrane-bound enzymes, among them those of drug oxidation.

Series [4] addresses hERG ion channel (Homo sapiens, UniProt Q12809). The series is described as follows: hERG affinity by Rapid ICE automated patch-clamp (HEK293 cells stably transfected with HERG cDNA). Background: Block of hERG is tested as a sign of cardiac risk.
Source text: Rapid ICE™ (Rapid Ion Channel Electrophysiology) is an automated patch-clamp assay utilising the PatchXpress 7000A system (Axon Instruments). Rapid ICE™ assesses the effect of test substances on HERG tail current recorded from HEK293 cells stably transfected with HERG cDNA.
HERG.T.HEK (HEK293 cells stably transfected with HERG cDNA) were obtained from the University of Wisconsin. These cells are held in cryogenic storage at Quintiles and also maintained in culture. The cells are continuously maintained in and passaged using minimum essential medium supplemented with 10% foetal bovine serum, 1% non-essential amino acids, 1% sodium pyruvate and 0.4 mg/ml geneticin. For use in Rapid ICE™ studies, 4 ml of the cells are placed into falcon tubes at a density of 2.5×10^5/ml. The falcon tubes are stored in a humidified, gassed (5% CO2) incubator at 37° C. and cells are used within 2.5 h of storage. Just prior to experimentation, these cells are centrifuged at 1000 rpm for 1 min, the supernatant decanted and the cells re-suspended in 150 μl of bath solution in a 1.5 ml eppendorf tube.
The PatchXpress system is primed with appropriate extracellular (bath) and intracellular (pipette) solutions prior to conducting a study. A 16 well sealchip (Sealchip16, Aviva Bio-sciences Corp) is loaded into the system and primed before preparing cells in the bath solution suspension. The cell eppendorf is placed into the designated position and the procedure commences with the trituration and dispersion of cells into each well (recording chamber) of the sealchip. The PatchXpress system follows the general principles of conventional whole-cell patch-clamping: a high resistance seal is formed between the patch electrode and an individual cell, the membrane across the electrode tip is ruptured and the whole-cell patch-clamp configuration is established. If the quality of the cell is judged to be poor, the experiment may be terminated at this point and if necessary, the process repeated on another sealchip.
Once a stable patch has been achieved, recording commences in voltage-clamp mode, with the cell initially clamped at −80 mV. The standard voltage profile is as follows: step from −80 mV to −50 mV for 200 ms, +20 mV for 4.8 s, step to −50 mV for 5 s then step to the holding potential of −80 mV. The step from −80 mV to the test command (+20 mV) results in an outward current (i.e. current flows out of the cell) and the step from the test command (+20 mV) to −50 mV results in the tail current (the tail current represents deactivation of the current over time). […] Each value represents the average current recorded from 4 sequential voltage pulses. For each cell the effects of the test substance is determined by calculating the residual current (% control) compared with vehicle pre-treatment. […]
In series [5] the test system is rats pretreated with d-amphetamine. The series is described as follows: Reduction of amphetamine-induced hyper-locomotion. The series is classed as in vivo, rat. The conditions noted are these: read-out: ED50 amf (reduction of amphetamine-induced hyper-locomotion, estimated ED50 values). The procedure:
In this model, dopaminergic neurotransmission is increased by systemic administration of d-amphetamine at a dose that is sufficiently high to produce a large increase in locomotor activity. The ability of a compound to antagonize this hyperactivity reflects anti-dopaminergic properties, which are part of the dopaminergic stabiliser profile.
Behavioural activity was measured using eight Digiscan activity monitors (RXYZM (16) TAO, Omnitech Electronics, Columbus, Ohio, USA), connected to an Omnitech Digiscan analyzer and a Apple Macintosh computer equipped with a digital interface board (NB DIO-24, National Instruments, USA). Each activity monitor consisted of a quadratic metal frame (W×L 40×40 cm) equipped with photobeam sensors. During measurements of behavioural activity, a rat was put in a transparent acrylic cage (W×L×H, 40×40×30 cm) which in turn was placed in the activity monitor. Each activity monitor was equipped with three rows of infrared photobeam sensors, each row consisting of 16 sensors. Two rows were placed along the front and the side of the floor of the cage, at a 90° angle, and the third row was placed 10 cm above the floor to measure vertical activity. Photobeam sensors were spaced 2.5 cm apart. Each activity monitor was fitted in an identical sound and light attenuating box containing a weak house light and a fan.
Behavioural data from each activity monitor, representing the position (horizontal centre of gravity and vertical activity) of the animal at each time, were recorded at a sampling frequency of 25 Hz and collected using a custom written LABView™ application. The data from each recording session were stored and analyzed with respect to distance traveled. Each behavioural recording session lasted 60 min, starting approximately 4 min after the injection of test compound. […] The results are presented as counts/60 minutes, or counts/30 minutes, in arbitrary length units. Statistical comparisons were carried out using student's t-test vs the control group.
For most compounds, the evaluation is based on 16 amphetamine pre-treated animals over the dose range 0, 11, 33 and 100 μmol/kg s.c. in one single experiment, with complementary doses in separate experiments. Calculations are based on distance during the last 45 minutes of one hour of measurement. […] To estimate confidence levels for the parameters, the fit is repeated 100 times with a random evenly distributed squared weight (0 to 1) for every measurement value.

Series [6] can be described thus: Oral bioavailability in rat. The conditions noted are these: plasma, oral 12.5 μmol/kg vs i.v. 5 μmol/kg, AUC ratio. Type of series: in vivo. The procedure:
Experiments are performed 24 hours after implantation of arterial and venous catheters. Test compound is administered orally at 12.5 μmol/kg or intravenously at 5 μmol/kg using the venous catheters, n=3 per group. Arterial blood samples are then taken during […] at 0, 3, 9, 27, 60, 120, 180, 240, 300 and, 360 minutes after administration of the test compound. The oral bioavailability was calculated as the ratio of the AUC (Area under curve) obtained after oral administration over the AUC obtained after intravenous administration for each rat. The parameter AUC was calculated according to the following: AUC: the area under the plasma concentration versus time curve from time zero to the last concentration measured (Clast), calculated by the log/linear trapezoidal method.
The levels of test compound are measured by means of liquid chromatography-mass spectrometry (LC-MS). (Hewlett-Packard 1100MSD Series). The module include a quaternary pump system, vacuum degasser, thermostatted autosampler, thermostatted column compartment, diode array detector and API-ES spray chamber. […]
Extractions procedure: Plasma samples (0.25-0.5 ml) were diluted with water to 1 ml, and 60 pmol (100 μl) internal standard (−)-OSU6241 was added. […] The selective ion (MH^+) was monitored for each Example, and MH^+ 296 for (−)-OSU6241 ((3-[3-(ethylsulfonyl)phenyl]-1-propylpiperidine). […]

Where [7] appears, read: rat, test compound s.c., d-amphetamine 1.5 mg/kg i.p., distance during last 45 min of one hour.

Sequence of hERG ion channel (Q12809 whole entry): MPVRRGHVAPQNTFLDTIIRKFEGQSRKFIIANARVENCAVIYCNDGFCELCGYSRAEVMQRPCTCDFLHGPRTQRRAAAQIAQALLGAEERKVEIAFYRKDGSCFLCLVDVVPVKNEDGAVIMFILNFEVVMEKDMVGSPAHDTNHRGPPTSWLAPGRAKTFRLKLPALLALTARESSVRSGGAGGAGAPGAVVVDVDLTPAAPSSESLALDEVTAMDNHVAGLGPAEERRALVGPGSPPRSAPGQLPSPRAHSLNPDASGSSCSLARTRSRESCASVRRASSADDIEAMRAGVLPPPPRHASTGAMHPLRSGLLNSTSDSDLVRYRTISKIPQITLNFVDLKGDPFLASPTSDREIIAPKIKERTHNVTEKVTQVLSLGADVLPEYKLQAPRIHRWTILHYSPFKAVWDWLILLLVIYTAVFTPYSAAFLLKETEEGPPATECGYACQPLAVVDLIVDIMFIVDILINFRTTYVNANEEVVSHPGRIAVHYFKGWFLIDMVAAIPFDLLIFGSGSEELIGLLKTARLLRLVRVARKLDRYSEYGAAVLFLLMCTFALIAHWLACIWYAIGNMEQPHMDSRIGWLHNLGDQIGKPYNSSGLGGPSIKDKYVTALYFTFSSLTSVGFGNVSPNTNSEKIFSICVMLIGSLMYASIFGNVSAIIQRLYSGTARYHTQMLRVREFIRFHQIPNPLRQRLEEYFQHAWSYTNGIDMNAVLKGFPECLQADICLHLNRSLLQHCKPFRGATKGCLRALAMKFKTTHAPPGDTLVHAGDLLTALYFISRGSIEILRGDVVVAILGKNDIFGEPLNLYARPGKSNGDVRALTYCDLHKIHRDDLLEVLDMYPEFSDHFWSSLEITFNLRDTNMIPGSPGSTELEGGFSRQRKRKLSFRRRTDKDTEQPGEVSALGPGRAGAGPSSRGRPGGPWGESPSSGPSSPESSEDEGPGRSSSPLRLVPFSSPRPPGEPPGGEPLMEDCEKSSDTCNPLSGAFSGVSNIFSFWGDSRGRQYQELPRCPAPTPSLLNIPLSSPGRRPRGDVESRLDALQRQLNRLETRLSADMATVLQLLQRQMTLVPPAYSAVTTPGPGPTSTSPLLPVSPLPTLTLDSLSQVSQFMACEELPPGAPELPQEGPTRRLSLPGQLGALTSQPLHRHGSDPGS

On to `CCN1CCC(c2cc(F)cc(S(C)(=O)=O)c2)CC1` (as salt: hydrochloric acid salt) [Example 2, 1-ethyl-4-[3-fluoro-5-(methylsulfonyl)phenyl]piperidine], for which the melting point fell in the range of 176 to 178 °C.
On the same count and under the same terms, for `CCCN1CCC(c2cc(F)cc(S(C)(=O)=O)c2)CC1` (as salt: hydrochloric acid salt) [Example 1, 4-[3-fluoro-5-(methylsulfonyl)phenyl]-1-propylpiperidine] the value was 187 to 189 °C.
As for `CCN1CCC(c2cc(F)cc(S(C)(=O)=O)c2)CC1` [Example 2, 1-ethyl-4-[3-fluoro-5-(methylsulfonyl)phenyl]piperidine], the “Locomotor activity, MK + example 100 μmol/kg” value in series [1] is 24012 ± 5511 (P = 0.03) counts/30 min ± SEM. For the same compound, the DOPAC in striatum in series [2] was 292 % of control. Further, the “Turnover at 15 minutes in rat liver microsomes” value in series [3] came out at 0%. In series [4], the midpoint of inhibition, the IC50, lay at 21.7 µM. Also, in series [5] (setting [7]), the median effective dose (ED50) was 28 µmol/kg. For the same compound, in series [6], the bioavailability is about 85%.
For the compound `CCCN1CCC(c2cccc(S(C)(=O)=O)c2)CC1`, the ED50 in series [5] (Rattus norvegicus) is 52 µmol/kg.
Regarding `CCCN1CCC(c2ccc(Cl)c(C(F)(F)F)c2)CC1` [reference compound], in series [4], the IC50 was determined as 0.61 µM. In addition, the ED50 in series [5] (Rattus norvegicus) is 34 µmol/kg.
On to `CCCN1CCC(c2cc(F)cc(C(F)(F)F)c2)CC1` [reference compound], for which the midpoint of inhibition in series [4], the IC50, lay at 1.5 µM. Further, the ED50 in series [5] (setting [7]) is 14 µmol/kg.
With `CCCN1CCC(c2cc(F)cc(S(C)(=O)=O)c2)CC1` [Example 1, 4-[3-fluoro-5-(methylsulfonyl)phenyl]-1-propylpiperidine], the “Locomotor activity, MK + example 100 μmol/kg” value in series [1] is given as 20858 ± 4638 (P = 0.01) counts/30 min ± SEM. Further, in series [2], the DOPAC in striatum is given as 318 % of control. Besides, the “Turnover at 15 minutes in rat liver microsomes” value in series [3] worked out at 5%. Besides, the IC50 in series [4] amounted to 9.8 µM. The ED50 in series [5] (setting [7]) is 12 µmol/kg.
